According to patent US20090069442A1, “Therapeutic Agent for Sensory Abnormality” (priority 2005, published 2009):

What was measured:
[1] = tested on: STZ-induced diabetic model mice; assay: Improving effect in dullness models, formaldehyde-induced licking and biting behavior; format: in vivo, ddY mice; conditions: a week of intraperitoneal administration (8, 24 and 40 mg/kg) with the STZ administration; 1% formaldehyde into plantar; FIG. 4
Method: Four-week-old male ddY mice were administered with a single dose of streptozotocin (hereunder, also referred to as STZ) (200 mg/kg) by tail vein injection, everyday for a week. For 24 hours after STZ administration, the rats were allowed to freely take a 10% glucose solution instead of drinking water, and then allowed to freely take distilled water. As the test substance, compound 24 synthesized in Preparation Example 24 was used. Concurrently with the start of STZ administration, the test substance-administration group was intraperitoneally administered with a single dose of the test substance (8 mg/kg, 24 mg/kg, and 40 mg/kg) everyday for a week. The control group was administered with the vehicle of the test substance during the same period. The blood glucose level of the tail venous blood was measured by a blood glucose meter (DEXTER ZII: Bayer Medical Ltd.). Individuals with a blood sugar level of 400 mg/dL or more, were used for the experiment. After a week of STZ administration, the mice were subcutaneously injected with 1% formaldehyde solution (20 μL) into the plantar of the left hind paw. The total time spent for licking (licking of plantar of the left hind paw) behavior and biting (biting of plantar of the left hind paw) behavior was scored every 5 minutes after administration, for 60 minutes.

[2] = tested on: sciatic nerve entrapment model rats (Bennett model rats); assay: Analgesic effect in partial nerve injury models, paw pressure (Randall-Selitto) method; format: in vivo, Spraugue-Dawley rats; conditions: for pain threshold of the nerve-injured paw: started after hyperalgesia confirmed, FIG. 2
Method: (§1) For a hyperalgesia model animal, sciatic nerve entrapment model rats (Bennett model rats) serving as partial nerve injury models, were used. That is, four-week-old male Spraugue-Dawley rats (Japan SLC, Inc.) were housed under a constant temperature and humidity condition for a week. Then, under anesthesia with pentobarbital (50 mg/kg), the sciatic nerve in the left hind paw was stripped from tissue, and raised using tweezers to slightly stretch the axon part. […] The right hind paw was left untreated for use as a normal paw. The operated site was disinfected with Isodine everyday in the first post-operative week to prevent infection.
As the test substance, 3-(15-hydroxypentadecyl)-2,4,4-trimethyl-2-cyclohexen-1-one (hereafter, also referred to as compound 24) synthesized in Preparation Example 24 was used.
Rats showing reduction of pain threshold by 30% or more in the nerve-injured paw, and change in pain threshold within a range of 5% in the normal paw, as compared to preoperative values, were used for the experiment. Prior to administration of the test substance, the nerve-injured paw (operated side) and the normal paw (untreated side) of each individual were subjected to an analgesic test. Furthermore, the test substance-administered group was intraperitoneally administered with a single dose of the test substance (8 mg/kg, 24 mg/kg, and 40 mg/kg) everyday for a week. The control group was administered with the vehicle of the test substance during the same period. After one week from the start of administration, the nerve-injured paw (operated side) and the normal paw (untreated side) of each rat were again subjected to an analgesic test.
The paw pressure (Randall-Selitto) method using pressure stimuli was employed as the analgesic test. Mechanical pressure stimuli were applied on the dorsal portion of the rat hind paw by an analgesimeter, and the minimum value of pressure stimulus at which vocalization or withdrawal occurred was defined as pain threshold. In the measurement of pain threshold according to the paw pressure method, a rat has to be held down and restrained. […]

[3] = tested on: sciatic nerve entrapment model rats (Bennett model rats); assay: Injury-preventive effect in partial nerve injury models, paw pressure (Randall-Selitto) method; format: in vivo, Spraugue-Dawley rats
Method: as §1, with “and used” for “for use”
As the test substance, compound 24 synthesized in Preparation Example 24 was used.
The nerve-injured paw (operated side) and the normal paw (untreated side) of each individual were previously subjected to an analgesic test, subsequently followed by Bennett operation. Furthermore, a single dose of the test substance (8 mg/kg) was intraperitoneally administered from the day of the operation, everyday for a week. The control group was administered with the vehicle of the test substance during the same period. After one week from the start of administration, the nerve injured paw (operated side) and the normal paw (untreated side) of each rat were again subjected to an analgesic test. […]

O=C1C=C(CCCCCCCCCCCO)CCC1 [Preparation Example 2, 3-(11-hydroxyundecyl)-2-cyclohexen-1-one]
melting point: 34 to 35 °C

O=C1C=C(CCCCCCCCCCCCO)CCC1 [Preparation Example 3, 3-(12-hydroxydodecyl)-2-cyclohexen-1-one]
melting point: 35 to 36 °C

O=C1C=C(CCCCCCCCCCCCCO)CCC1 [Preparation Example 4, 3-(13-hydroxytridecyl)-2-cyclohexen-1-one]
melting point: 42 to 43 °C

O=C1C=C(CCCCCCCCCCCCCCO)CCC1 [Preparation Example 5, 3-(14-hydroxytetradecyl)-2-cyclohexen-1-one]
melting point: 44 to 45 °C

CC1=C(CCCCCCCCCCCCCCCO)C(C)(C)CCC1=O [compound 24, 3-(15-hydroxypentadecyl)-2,4,4-trimethyl-2-cyclohexen-1-one]
Phase II pain response (total time spent for licking and biting behavior) [1]: improved Phase II torpor | pain threshold of the nerve-injured paw ([2]; 24 mg/kg intraperitoneally once a day for a week): significant increase in pain threshold | pain threshold of the nerve-injured paw ([2]; 40 mg/kg intraperitoneally once a day for a week): significant increase in pain threshold | pain threshold of the normal paw ([2]; normal paw (untreated side), after the one-week administration period, intraperitoneal): no significant change in pain threshold | pain threshold of the nerve-injured paw after the Bennett operation ([3]; 8 mg/kg intraperitoneally from the day of the operation, everyday for a week, FIG. 3): no significant change in pain threshold | pain threshold of the normal paw ([3]; normal paw (untreated side), 8 mg/kg intraperitoneally everyday for a week): no significant change in pain threshold
